Assay results: patent US20210060006A1, “COMPOSITIONS AND METHODS FOR TREATING GLIOBLASTOMA BY MODULATING A MGMT ENHANCER” (The Trustees of Columbia University in the City of New York, priority 2018, published 2021)

Tests used:
MGMT [1] = conditions: combination with TMZ compared to TMZ alone; cited from earlier work
[2] = system: SKMG3 parental cells and enhancer deletion clones; assay: Clonogenic assay of TMZ sensitivity; format: cell-based, human; conditions: for IC50: Homo sapiens
Protocol: Cell viability was determined using clonogenic assay.
FIG. 5F is a summary of TMZ IC50 in SKMG3 clones with or without O6BG pre-treatment.
Clonogenic assays were performed to assess the effect of disrupted enhancer on TMZ sensitivity. Briefly, SKMG3 parental cells and enhancer deletion clones were plated in 6 wells plates (250 cells/well), treated with graded concentration of TMZ in presence or absence of O6BG and were cultured for 2 weeks. Colonies were fixed and stained with crystal violet (0.005% (w/v) Crystal violet, 25% (v/v) Methanol). Colonies with >50 cells were manually counted, IC50 calculated by GraphPad Prism 7 using multiparametric nonlinear regression model.

MGMT [3] = conditions: SAHA in combination with TMZ; cited from earlier work

Nc1nc(OCc2ccccc2)c2nc[nH]c2n1 [O6BG, O6-benzylguanine]
clinical benefit (MGMT [1]): no clinical benefit | hematologic toxicities (MGMT [1]): enhanced hematologic toxicities | therapeutic window (MGMT [1]): reduced therapeutic window | TMZ sensitizing effect of enhancer deletion ([2]; group pre-treated with 10 μM O6BG 1 h prior to temozolomide): not observed

O=C(CCCCCCC(=O)Nc1ccccc1)NO [SAHA]
MGMT expression (MGMT [3]): promotes elevation of MGMT expression

Cn1nnc2c(C(N)=O)ncn2c1=O [TMZ, temozolomide]
IC50 ([2]; K-M enhancer deleted (3.3 kb) SKMG3 clones): < 10 µM | IC50 ([2]; parental SKMG3 lines and wild type control clone): > 100 µM
